In patent publication US20230303581A1, “ORALLY BIOAVAILABLE, BRAIN-PENETRANT COMPOUND WITH SELECTIVITY FOR THE CANNABINOID TYPE 2 RECEPTOR WITH POTENTIAL USE TOWARDS VISCERAL PAIN MANAGEMENT AND NEURODEGENERATIVE DISORDERS” (University of Mississippi, priority 2022, published 2023):

Legend:
[1] = molecular target: human CB1 receptors (Homo sapiens (Human), UniProt P21554); test: Cannabinoid receptor binding (displacement) assay, CB1; conditions: 10 μM compound
Protocol: (§1) The affinities of the compounds for CB1 and CB2 receptors were examined using displacement assays, as previously described. Briefly, cell membranes from CHO cells expressing human CB1 or human CB2 receptors were isolated using differential centrifugation. Test compounds reconstituted in DMSO and were incubated with the isolated membrane in binding buffer (50 mM Tris-HCl, 1 mM EDTA, 3 mM MgCl2, 5 mg/mL BSA, pH 7.4) along with 2.5 nM [^3H]CP-55,940. Total binding was assessed in the presence of equal concentration of DMSO, while non-specific binding was determined in the presence of 10 μM CP-55,940, and background binding was determined in wells lacking membrane. Following incubation at 30° C. for 60 min, the binding reactions were terminated by vacuum filtration through Whatman GF/C filters. The filters were then washed twice with ice-cold buffer (50 mM Tris-HCl, 1 mg/mL BSA). Liquid scintillation cocktail was added to each well and the total tritiated counts per minute were analyzed using a TopCount scintillation counter. Background counts were subtracted from all wells and the percent displacement from total binding was calculated.
(§2) The compounds were initially screened at 10 μM concentrations. If they produced at least ±30% displacement of the radioligand, then full competition curves were constructed. Ki values were calculated using GraphPad Prism (San Diego, CA, USA) and Kd values determined using a 1 site fit. All assays were run in technical and biological replicates so that the n=5-6. PK Evaluation in CD-1 Mice
(§3) The CB1/CB2 receptor binding activities of analogs 4a-4q were assessed via radioactivity-based competitive binding assays using [^3H]CP55,940, an extensively studied radioligand that is frequently used for cannabinoid assays. […] In preliminary screening, all 17 synthetic PBD compounds (4a-4q) were subjected to in vitro CB1 and CB2 binding assays at a single concentration of 10 μM. […] Therefore, the most promising ligands (4k and 4q) were selected for assessment in full competition curves against CB1 and CB2.

[2] = molecular target: human CB2 receptors (Homo sapiens (Human), UniProt P34972); test: Cannabinoid receptor binding (displacement) assay, CB2; conditions: 10 μM compound
Chain of human CB2 receptors (P34972 whole entry): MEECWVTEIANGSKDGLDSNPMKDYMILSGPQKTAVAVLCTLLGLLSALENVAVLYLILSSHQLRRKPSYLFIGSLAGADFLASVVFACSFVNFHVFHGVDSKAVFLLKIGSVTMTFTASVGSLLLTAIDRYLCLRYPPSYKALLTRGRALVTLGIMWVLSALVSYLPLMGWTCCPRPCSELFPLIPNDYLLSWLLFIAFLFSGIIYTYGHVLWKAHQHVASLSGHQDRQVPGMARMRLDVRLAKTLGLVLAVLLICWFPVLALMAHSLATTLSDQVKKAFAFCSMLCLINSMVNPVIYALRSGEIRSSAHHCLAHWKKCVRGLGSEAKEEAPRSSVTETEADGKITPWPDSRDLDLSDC
Protocol: as §1, §2, §3

[3] = test system: mice; test: Conditioned place preference test; format: in vivo; conditions: FIG. 4
Text: Conditioned place preference testing is used to assess a compound's rewarding effects in order to gauge potential abuse liability. Mice are “conditioned” to associate distinctly lighted/colored/textured chambers with a rewarding drug (e.g., opioid) or no drug. If the mice sense a rewarding effect of the drug, they will prefer to occupy the chamber associated with that drug. FIG. 4 presents the results of a conditioned place preference test for 3 groups of mice (i.e., vehicle, oxycodone treated, and compound 4k treated).

[4] = test system: mice; test: Acetic acid-induced writhing test; format: in vivo; conditions: oxycodone 3 mg/kg, compound 4k 5 mg/kg, versus vehicle
Text: Acetic acid-induced writhing is widely used for assessing analgesic effects against inflammatory pain of peripheral origin.

Chain of human CB1 receptors (P21554 whole entry): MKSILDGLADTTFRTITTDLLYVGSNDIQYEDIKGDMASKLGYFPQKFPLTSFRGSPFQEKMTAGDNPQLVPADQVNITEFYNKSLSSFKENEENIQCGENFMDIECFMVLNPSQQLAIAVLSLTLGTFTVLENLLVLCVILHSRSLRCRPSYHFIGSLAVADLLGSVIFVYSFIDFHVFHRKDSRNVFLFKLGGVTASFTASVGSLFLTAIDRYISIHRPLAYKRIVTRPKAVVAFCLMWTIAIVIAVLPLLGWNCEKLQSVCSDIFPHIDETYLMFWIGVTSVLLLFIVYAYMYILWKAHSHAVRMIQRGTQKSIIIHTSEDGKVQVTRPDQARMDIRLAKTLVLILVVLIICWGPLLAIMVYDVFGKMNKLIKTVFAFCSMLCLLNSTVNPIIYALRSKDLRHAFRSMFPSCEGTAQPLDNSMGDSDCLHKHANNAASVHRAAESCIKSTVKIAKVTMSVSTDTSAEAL

| Molecule | Displacement of [3H]CP-55,940 from CB1 [1] [%] | Displacement of [3H]CP-55,940 from CB2 [2] [%] | place preference (rewarding effect, abuse liability) [3] | writhing over 30 minutes [4] |
| --- | --- | --- | --- | --- |
| (S,E)-11-[(Benzo[d]thiazol-2-ylmethylene)hydrazono]-pyrrolo[2,1-c][1,4] Benzodiazepine [Compound 4n] | 44.14 | 43.34 |  |  |
| O=C1c2ccccc2N/C(=N/N=C/c2sc(Cl)nc2Cl)[C@@H]2CCCN12 [Compound 4g] | 24.19 | 29.27 |  |  |
| Cn1cc(/C=N/N=C2/Nc3ccccc3C(=O)N3CCC[C@@H]23)c2ccccc21 [Compound 4o] | 5.09 | 1.01 |  |  |
| Cc1ncsc1/C=N/N=C1/Nc2ccccc2C(=O)N2CCC[C@@H]12 [Compound 4e] | 21.88 | 19.86 |  |  |
| Cc1ncc(/C=N/N=C2/Nc3ccccc3C(=O)N3CCC[C@@H]23)s1 [Compound 4d] | −27.99 | −33.65 |  |  |
| (S,E)-11-[(5-Methoxy-1H-indol-3-yl)methylene)hydrazono]-pyrrolo[2,1-c][1,4]Benzodiazepine [Compound 4p] | −27.20 | −29.47 |  |  |
| COc1ccc2c3c1O[C@H]1C(=O)CC[C@@]4(O)[C@@H](C2)N(C)CC[C@]314 [oxycodone, reference compound] |  |  | clear place preference | attenuate writhing |
| Cc1c(/C=N/N=C2/Nc3ccccc3C(=O)N3CCC[C@@H]23)sc2ccccc12 [Compound 4l] | 77.17 | 51.73 |  |  |
| (S,E)-11-[2-(Benzo[b]thiophenylmethylene)hydrazono]-pyrrolo[2,1-c][1,4]Benzodiazepine [Compound 4h] | 36.88 | 61.05 |  |  |
